Data set [1] concerns cancer cells in freshly excised breast surgical tissue. The data set can be described thus: Injection into freshly excised cancerous breast tissue. The source says: Injection of compound 1 into freshly excised cancerous breast tissue leads to rapid entry into cancer cells (red). Blue represents nuclear labeling with Hoechst dye.
Data set [2] concerns brain endothelium / blood brain barrier. In words: In vivo two-photon imaging of mouse brain cortex after intravenous administration. The procedure: Briefly, animals are anaesthetized via intraperitoneal injections of ketamine/xylazine or via inhaled isoflurane. A region of the skull (3×3 mm) is gently removed with a high-speed drill and the underlying dura is removed. A small glass coverslip is placed over the skull to allow long term optical access for in vivo imaging. Labeling with fluorescent dyes is performed either via intravenous injections or topically application to the cortical surface for 20 min prior to glass cover placement. After recovery, in vivo images are acquired using a two-photon microscope (Bruker Technologies) equipped with a multimodal (fixed wavelength 1040 nm and tunable wavelength) InSight X3 two-photon laser (Spectra Physics) and 20× water immersion objective (Zeiss 1.0N.A.). The two-photon laser is appropriately tuned to excite particular fluorescent dyes and proteins as needed. In selected cases, following in vivo imaging, mice will be sacrificed and perfused for follow up immunohistochemistry and high-resolution confocal imaging (Leica SP8) to further confirm colocalization of dyes and cells expressing particular transporters.
One-month-old wild-type mice were anesthetized using a ketamine/xylazine solution at doses of 100 mg/kg and 10 mg/kg, respectively. The fur around the skull area was shaved, and buprenex (0.1 mg per kg) and carprofen (5 mg per kg) were administered subcutaneously. Mice were kept on a heating pad at 37° C., and anesthesia was periodically monitored. The skin was treated with povidone-iodine solution, followed by cleaning with ethanol, and eye ointment was applied. A small skin section was excised to expose the skull. Thinning of the skull was performed in a circular area, followed by delicately lifting of the remaining skull without harm to the underlying brain. Within the circular region, the dura was gently removed using fine forceps, and a 4 mm cover glass was softly pressed onto the brain surface and affixed to the skull. Fluorescent dyes were applied either through intravenous injections or topically to the cortical surface for 20 minutes before placing the glass cover. A customized head bar was attached either by adhesive (for acute imaging) or permanently implanted (using dental cement, for chronic imaging) onto the skull. Mice were imaged under a two-photon microscope (Prairie Technologies) with a mode-locked MaiTai tunable laser (Spectra Physics). Imaging was performed with a 20× water immersion objective (Zeiss, 1.0NA). Images were captured at depths up to 300 μm from the pial surface using excitation wavelengths ranging from 750 to 950 nm as previously described. Mice undergoing chronic imaging received a recovery period on a heating pad post-surgery, and buprenex (0.1 mg per kg) and carprofen (5 mg per kg) were administered for 3 days. […]

In data set [3] the test system is retinal endothelial cells. In words: Retinal endothelial labeling after intravitreal / intraocular injection. It is filed as in vivo, mouse. Conditions: intravitreal/intraocular injection (eEDiTS 50 μM in FIG. 14D).
Data set [4] in a line: Assessment of in vivo compound toxicity (fur regrowth, body weight). Also on record: species or system mouse. As to conditions: intradermal injection (fur regrowth) and daily intraperitoneal injection for 5 days (body weight). As for the experimental part: To evaluate systemic toxicity, mouse weight was monitored daily, focusing on P20 mice in their active growth stage. For local toxicity assessment, the mouse fur was shaved to stimulate follicular stem cell division and subsequent hair regrowth. Compounds were injected intradermally on the right lower back quadrant and the left quadrant was used as a control. Hair regrowth was monitored for 12 days with serial photography followed by quantification using NIH Image J Plot Profile Plug-In, yielding pixel intensity profiles. Changes in pixel intensity where compared between injected (right quadrant) versus noninjected (left quadrant) by using the following formula:
(Noninjected intensity−Injected intensity)/Noninjected intensity×100%. (Eq. 1)

Another data set deals with NIH3T3 cells. The data set can be described thus: Assessment of pharmacological effects in vitro in NIH3T3 cells (tubulin staining, multinucleated cells). It is filed as cell-based.

Entries after “also recorded” stand apart in the source; their conditions may differ.

From the text for NIH3T3 cells: Confocal microscopy of the different treatment groups allowed us to visualize Hoechst dye-labeled nuclei to quantify the proportion of cells with multinucleated phenotype which is known to occur with Colchicine treatments.

As for `O=S(=O)([O-])c1cc(S(=O)(=O)O)ccc1C1=c2cc3c4c(c2Oc2cc(Br)ccc21)CCC[N+]=4CCC3` [Compound 1, 2-(12-bromo-1,2,3,5,6,7-hexahydrochromeno[2,3-f]pyrido[3,2,1-ij]quinolin-4-ium-9-yl)-5-sulfobenzenesulfonate], the “entry into breast cancer cells” value in data set [1] is “readily enters cancer cells”. Also, the “entry into non-endothelial cells” value in data set [2] (2 hours post intravenous injection) is on record as “does not enter non-endothelial cells; also recorded: does not enter other cells except for endothelial cells”. The “brain endothelial labeling after intravenous administration” value in data set [2] (IV 50 microliters at 20 mg/ml, 10 min to 130 min post injection) is given as “marked uptake of the compound into the capillary endothelial wall; also recorded: robust brain endothelial labeling”. For the same compound, the “interstitial space fluorescence / blood brain barrier crossing” value in data set [2] (IV, 10 min vs 130 min or 2 hours post injection) is recorded as “located in the brain interstitial space; also recorded: marked increase in the interstitial space fluorescence”. Moreover, the “punctate labeling in the endothelium” value in data set [2] (lower concentration IV in 120 μL of PBS, around 2 hours post injection) is reported as “bright punctate labeling becomes apparent in the endothelium”. Moreover, in data set [3], the retinal endothelial labeling result is “rapid and highly specific labeling of retinal vasculature”.

Take `COc1cc2c(c(OC)c1OC)-c1ccc(OC)c(=O)cc1C(NS(=O)(=O)c1ccc(-c3c4ccc(N(C)C)cc4[o+]c4cc(N(C)C)ccc34)c(S(=O)(=O)[O-])c1)CC2` (stereo not shown) [Compound 47, 2-(3,6-bis(dimethylamino)xanthylium-9-yl)-5-(N-(1,2,3,10-tetramethoxy-9-oxo-5,6,7,9-tetrahydrobenzo[a]heptalen-7-yl)sulfamoyl)benzenesulfonate]: in data set [4], the “local and systemic toxicity” value is “markedly reduced local and systemic toxicity”. For the same compound, the “preservation of pharmacological properties after conjugation” value in the data set on NIH3T3 cells (NIH3T3 cells) is given as “retains its pharmacological properties”. In the data set with NIH3T3 cells (NIH3T3 cells (FIG. 17A)), the “cell morphology / multinucleated cells” value is “changes in cell morphology and presence of multinucleated cells”. Besides, the “pattern of α-tubulin immunofluorescence” value in the data set with NIH3T3 cells (NIH3T3 cells, 12 hours, varying concentrations (FIG. 17A)) is reported as “diffuse labeling pattern”.
